Biological target: T1, human NK3 receptor (Homo sapiens, UniProt P29371)
T1 construct: expressed in transfected cells; host or cells: HEK293 cells, transiently transfected; membranes
T1 sequence (P29371 1-465): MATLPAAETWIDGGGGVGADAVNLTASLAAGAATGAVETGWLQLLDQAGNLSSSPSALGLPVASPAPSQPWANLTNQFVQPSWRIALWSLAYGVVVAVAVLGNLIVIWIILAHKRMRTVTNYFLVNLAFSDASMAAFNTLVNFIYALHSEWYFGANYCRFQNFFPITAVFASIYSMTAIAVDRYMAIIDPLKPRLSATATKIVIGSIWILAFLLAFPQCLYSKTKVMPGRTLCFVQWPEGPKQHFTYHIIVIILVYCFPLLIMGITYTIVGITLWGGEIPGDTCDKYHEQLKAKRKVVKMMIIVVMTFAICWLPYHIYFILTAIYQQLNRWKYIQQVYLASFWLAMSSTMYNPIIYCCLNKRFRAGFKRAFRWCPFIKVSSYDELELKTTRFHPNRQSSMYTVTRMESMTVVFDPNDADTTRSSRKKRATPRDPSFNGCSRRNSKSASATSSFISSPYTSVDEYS
Experiment: [3H]SR142801 competition binding assay
Details: [3H]SR142801 displacement, membranes of HEK293 cells transiently expressing recombinant human NK3 receptor; read-out: hNK3 Ki
Summary of the method: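 Membranes from HEK293 cells transiently expressing human NK3 receptor incubated 75 min at RT with [3H]SR142801 at its KD and compound (0.0003-10 μM) in pH 7.4 Tris/MnCl2 buffer. Filtration and scintillation counting, nonspecific binding with 10 μM SB222200. IC50 from Hill fit, Ki by Cheng-Prusoff, duplicates.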

## CN(Cc1ccc(Cl)cc1)C(=O)[C@@H](CCN1CCC2(CC1)OC(=O)N(C)c1ccc(F)cc12)c1ccc(Cl)c(Cl)c1 [Example 148, (2S)-N-(4-chlorobenzyl)-2-(3,4-dichlorophenyl)-4-(6-fluoro-1-methyl-2-oxo-1,2-dihydro-1′H-spiro[3,1-benzoxazine-4,4′-piperidin]-1′-yl)-N-methylbutanamide]
  Ki: 0.4 nM

— US7470684B2, “Spiropiperidine derivatives as NK3 antagonists” (Hoffmann-La Roche Inc., priority 2007, dated 2008)
